Source: ChEMBL document CHEMBL1201862, “PubChem BioAssay data set” (2004)
The source made the active and inactive calls.

Key:
[1] = target: COUP transcription factor 2 (Homo sapiens, UniProt P24468); assay: Luminescence-based cell-based high throughput dose response assay to identify inhibitors of COUP-TFII (NR2F2).; assay type: functional;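 also: HEK293 cells transiently cotransfected with COUP-TFII expression vector and reporter; luciferase reporter luminescence driven by COUP-TFII from the pX2-168 reporter plasmid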
[2] = MC4R antagonists, dose response, counter-screen for LGR2 antagonist project, cell-based, plate reader, cherry pick (AID 743444); assay type: functional;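 also: transfected HEK 293 cells stimulated with alpha-MSH peptide; potency of inhibitors of the alpha-MSH evoked signal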
Paired box protein Pax-8 = Paired box protein Pax-8 (Homo sapiens, UniProt Q06710); assay: inhibitors of PAX8-driven TPO luciferase reporter, dose response, RMG-I cells, cherry-pick (AID 687027); assay type: functional, cell-based;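 also: luciferase reporter driven by Pax8 target thyroperoxidase promoter measured by SteadyGlo luminescence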
[3] = LGR2 antagonists, dose response, cell-based, HEK293, CRE-luciferase reporter, cherry pick, set 2 (AID 743343); assay type: functional;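 also: transfected cells were stimulated with diluted bursicon conditioned medium after compound addition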
[4] = Shn3 3'UTR reporter inhibitors, dose response, cell-based, Clone20 osteoblasts, firefly luciferase, cherry-picked (AID 624132); assay type: functional;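 also: firefly luciferase luminescence from reporter carrying the Shn3 3'UTR in osteoblasts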
[5] = A549 cell cytotoxicity, dose response, cytotoxicity control, plate reader, cherry-pick, antagonist series (AID 743412); assay type: functional, cell-based
[6] = HEK293 cell cytotoxicity, dose response, cytotoxicity control, plate reader, cherry-picked samples (AID 743446); assay type: functional, cell-based
[7] = control 3'UTR Renilla luciferase suppression, dose response, counter-screen for Shn3 inhibitor project, cell-based, Clone20-Shn3RL, cherry-picked (AID 624133); assay type: functional
[8] = HepG2 cell cytotoxicity, dose response, cytotoxicity control, plate reader, cherry-pick, antagonist series (AID 743416); assay type: functional, cell-based
[9] = Fluorescence-based cell-based high throughput dose response assay for inhibitors of the interaction of nucleotide-binding oligomerization domain containing 2 (NOD2) and the receptor-interacting serine-threonine kinase 2 (RIPK2).; assay type: functional; details: Homo sapiens
Major prion protein = Major prion protein (Homo sapiens, UniProt P04156); assay type: functional, cell-based
cells [10] = assay: cells
[11] = target: T1, Ubiquitin-conjugating enzyme E2 N (Homo sapiens, UniProt P61088); assay type: functional;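 also: Dose-response confirmation in a TR-FRET assay detecting UBC13-driven polyubiquitin chain formation, inhibition measured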
T1 sequence (P61088 whole entry): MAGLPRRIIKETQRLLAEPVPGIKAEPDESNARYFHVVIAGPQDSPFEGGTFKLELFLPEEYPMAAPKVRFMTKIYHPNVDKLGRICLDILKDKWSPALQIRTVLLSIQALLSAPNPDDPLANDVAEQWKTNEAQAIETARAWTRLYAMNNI

[12] = target: DNA repair protein RAD52 homolog (Homo sapiens, UniProt P43351); assay type: functional, biochemical
INS1 = assay: beta cell apoptosis inhibitors, cytokine rescue, dose response, luminescence, retest (AID 449756); assay type: functional, cell-based; details: Rattus norvegicus;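 also: cell death triggered by IL-1 beta plus TNF-alpha plus IFN-gamma mixture; protective hits raise ATP signal compared with cytokine alone wells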
[13] = HepG2 cell cytotoxicity, dose response, cytotoxicity control for Shn3 inhibitor project, CellTiter-Glo, cherry-picked (AID 624134); assay type: functional, cell-based
Cytochrome P450 2C9 = Cytochrome P450 2C9 (Homo sapiens, UniProt P11712)
[14] = reduction of Shn3 3'UTR firefly luciferase signal, dose response, Schnurri-3 inhibitor project, cell-based, Clone20 osteoblasts, cherry-pick, set 2 (AID 720490); assay type: functional;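 also: actives lower the luminescence signal as inhibitors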
Cytochrome P450 2D6 = Cytochrome P450 2D6 (Homo sapiens, UniProt P10635);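 also: CYP2D6 member of a cytochrome P450 panel assay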
[15] = target: T2, Trace amine-associated receptor 1 (Homo sapiens, UniProt Q96RJ0); assay: Counterscreen for agonists of the human trace amine associated receptor 1 (hTAAR1): Fluorescence-based cell-based high throughput dose response assay to identify hTAAR1 agonist that also desensitize TAAR1 receptor response.; assay type: functional
T2 sequence (Q96RJ0 whole entry): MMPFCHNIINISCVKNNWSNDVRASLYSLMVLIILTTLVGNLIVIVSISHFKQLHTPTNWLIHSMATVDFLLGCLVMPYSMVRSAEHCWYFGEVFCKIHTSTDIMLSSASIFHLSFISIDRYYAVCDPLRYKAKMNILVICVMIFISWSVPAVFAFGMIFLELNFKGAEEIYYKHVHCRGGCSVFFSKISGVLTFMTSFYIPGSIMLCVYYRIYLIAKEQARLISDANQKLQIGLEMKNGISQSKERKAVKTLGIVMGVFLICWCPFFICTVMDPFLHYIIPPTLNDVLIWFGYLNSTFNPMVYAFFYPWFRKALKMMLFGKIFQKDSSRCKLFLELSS

cells [16] = assay type: functional, cell-based
Large T antigen = Large T antigen (Simian virus 40, UniProt P03070); assay type: functional, Betapolyomavirus macacae;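 also: Confirmatory-stage PubChem screen for compounds that inhibit SV40 T antigen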
cells [17] = assay type: functional, cell-based; remark: listed apart in the source
[18] = target: T3, DNA repair and recombination protein RAD54-like (Homo sapiens, UniProt Q92698); assay: inhibitors of human RAD54 branch migration, confirmation, biochemical, fluorescence, cherry-picked samples, dose series (AID 651657); assay type: functional
T3 sequence (Q92698 whole entry): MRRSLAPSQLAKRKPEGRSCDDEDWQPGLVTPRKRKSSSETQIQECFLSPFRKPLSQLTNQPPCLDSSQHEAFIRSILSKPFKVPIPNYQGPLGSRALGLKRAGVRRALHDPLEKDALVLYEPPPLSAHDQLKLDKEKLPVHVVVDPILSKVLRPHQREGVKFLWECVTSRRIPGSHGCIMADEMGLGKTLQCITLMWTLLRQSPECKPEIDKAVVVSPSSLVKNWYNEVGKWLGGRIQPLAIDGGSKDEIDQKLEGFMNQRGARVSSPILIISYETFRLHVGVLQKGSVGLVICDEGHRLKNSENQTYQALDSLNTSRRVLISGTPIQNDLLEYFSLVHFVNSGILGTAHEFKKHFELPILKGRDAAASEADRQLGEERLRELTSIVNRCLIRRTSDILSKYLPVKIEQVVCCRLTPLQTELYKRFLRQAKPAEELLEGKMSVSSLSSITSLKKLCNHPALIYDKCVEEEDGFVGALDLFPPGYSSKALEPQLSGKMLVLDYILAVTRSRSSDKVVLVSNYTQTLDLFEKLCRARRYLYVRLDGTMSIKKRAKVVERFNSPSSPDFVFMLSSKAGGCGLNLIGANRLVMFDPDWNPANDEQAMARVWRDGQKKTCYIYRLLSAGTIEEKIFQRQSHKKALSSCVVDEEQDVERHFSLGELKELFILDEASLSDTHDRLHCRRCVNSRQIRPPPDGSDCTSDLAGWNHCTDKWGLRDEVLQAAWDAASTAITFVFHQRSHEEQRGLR

[19] = target: T2, Trace amine-associated receptor 1; assay: Fluorescence-based cell-based high throughput dose response assay to identify agonists of the human trace amine associated receptor 1 (TAAR1).; assay type: functional
H9c2 = assay: cells; assay type: functional, cell-based; details: Rattus norvegicus, H9c2, Myocardium;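 also: confirmatory concentration-response retest of ultra-high-throughput screening hits for modulation of myocardial damage; cell death induced by hydrogen peroxide oxidative stress; compound pretreatment for 60 min then peroxide exposure for 2 h; potency is for protecting the cells against peroxide damage rather than for killing them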
[20] = target: Histone-lysine N-methyltransferase NSD2 (Homo sapiens, UniProt O96028); assay type: biochemical
Albumin = Albumin (Bos taurus, UniProt P02769); assay: Counterscreen for inhibitors of T-cell receptor (TCR)-CD3 interaction: Fluorescence-based biochemical high throughput dose response assay to identify inhibitors of T-cell receptor (TCR)-CD3 interaction using a TAMRA-labeled BSA probe.; assay type: functional
[21] = target: Potassium channel subfamily K member 3 (Homo sapiens, UniProt O14649); assay: TASK1 (KCNK3) potassium channel inhibitors, SAR follow-up, CHO cells, FluxOR thallium flux (AID 652212); assay type: functional
[22] = non-specific cell cytotoxicity, dose response, cytotoxicity control for PAX8 inhibitor project, plate reader, dry powder samples (AID 743021); assay type: functional, cell-based
HEK293 [23] = assay: cells; assay type: functional, cell-based; details: Homo sapiens
[24] = THP-1 cell cytotoxicity, dose response, cytotoxicity control for Vif-APOBEC3G degradation inhibitor project, THP-1 cells (AID 1117359); assay type: functional; details: Human immunodeficiency virus 1, THP-1
[25] = Luminescence Cell-Based Dose Retest to Confirm Inhibitors of Cancer Stem Cells. [Related pubchem assays (depositor defined):AID2717, AID2721]; assay type: functional; details: Homo sapiens
HEK293 [26] = assay: NOD1 signaling inhibitors, primary screen, cell-based, luminescence, uHTS (AID 1578); assay type: functional; details: Homo sapiens
HEK293 [27] = assay: NOD2 signaling inhibitors in MDP-stimulated cells, cell-based, uHTS, luminescence (AID 2001); assay type: functional; details: Homo sapiens
HEK293 [28] = assay: cells; assay type: functional, cell-based; details: Homo sapiens; remark: listed apart in the source
[29] = HepG2 cell cytotoxicity, dose response, cytotoxicity control, cherry-picks, set 5 (AID 1053118); assay type: functional, cell-based
[30] = cytotoxicity in OVCAR8 ovarian cancer cells, dose response, PAX8 project, cell-based, plate reader, dry powder samples (AID 743197); assay type: functional; details: OVCAR-8
[31] = target: Glucose-6-phosphate 1-dehydrogenase (Homo sapiens, UniProt P11413); assay: human G6PD enzyme inhibitors, dose response, selectivity assay for P. falciparum G6PD inhibitor project, biochemical, fluorescence (AID 504792); assay type: functional
[32] = target: DNA (cytosine-5)-methyltransferase 1 (Homo sapiens, UniProt P26358); assay: DNMT1 methyltransferase inhibitors, confirmation, biochemical, fluorescent molecular beacon (AID 602386); assay type: functional

CC1CC(C)(O)CC(C(O)CC2CC(=O)NC(=O)C2)C1=O (stereo unspecified) [RESACTIN A]
IC50 [1]: 0.36 µM (active) | AC50 [2]: 1.14 µM (active) | AC50 (Paired box protein Pax-8): < 0.26 µM (active) | AC50 [3]: 0.441 µM (active) | AC50 [4]: 0.339 µM (active) | AC50 [5]: 0.424 µM (active) | AC50 [6]: 0.757 µM (active) | AC50 [7]: 6.15 µM (active) | AC50 [8]: 0.945 µM (active) | IC50 [9]: 49.7 µM (inactive)

CCc1nonc1NC(=O)c1oc2cc(Br)ccc2c1C
IC50 (Major prion protein): 3.55 µM (active) | IC50 (cells [10]): > 138 µM (inactive)

CCC[C@@H](CN1CCC[C@H]1CN1C(N)=NC[C@H]1CC(C)C)N1C[C@@H](Cc2ccccc2)N(CCCC2CCCC2)C1=N
IC50 [11]: > 20 µM (inactive) | AC50 [12]: 19.5 µM (active)

Cc1ccc2c(c1)nnn2C1CCN(S(=O)(=O)c2ccc(C(=O)N3C(C)CCCC3C)cc2)CC1 (stereo unspecified)
AC50 (INS1): 4.53 µM (active) | AC50 [13]: 60.8 µM (active) | AC50 [4]: 0.695 µM (active) | AC50 (Cytochrome P450 2C9): 15.8 µM (inconclusive) | AC50 [7]: 11.4 µM (active) | AC50 [14]: 1.29 µM (active) | AC50 (Cytochrome P450 2D6): 0.158 µM (inconclusive)

OCCNc1nc(Nc2ccc(O)cc2)nc2ccccc12
IC50 [15]: 1.64 µM (active) | IC50 (cells [16]): > 29.9 µM (inactive) | IC50 (Large T antigen): 4.5 µM (active) | EC50 (cells [17]): > 29.9 µM (inactive) | AC50 [18]: 38.6 µM (active) | EC50 [19]: 0.578 µM (active)

Nc1ncc(-c2ccccc2)n1CC1CCCO1 (stereo unspecified)
AC50 (Cytochrome P450 2C9): 14.1 µM (inconclusive) | IC50 (H9c2): > 79 µM (inactive) | AC50 [20]: > 20 µM (inactive)

CNC(=S)NNC(=O)c1cccn(Cc2ccc(Cl)cc2Cl)c1=O
IC50 (Albumin): > 94.1 µM (inactive)

O=C(N/N=C/c1cc(Cl)cc([N+](=O)[O-])c1O)c1cccc(S(=O)(=O)N2CCOCC2)c1
IC50 (Albumin): > 94.1 µM (inactive)

CCOc1ccccc1NC(=O)c1cccc(NC(=O)c2ccc(C(F)(F)F)cc2)c1
IC50 [21]: 0.22 µM (active)

OC(c1cc(-c2ccc(C(F)(F)F)cc2)nc(C(F)(F)F)c1)C1CCCCN1 (stereo unspecified) [ENPIROLINE]
AC50 (Paired box protein Pax-8): 17.9 µM (active) | AC50 (INS1): 6.95 µM (active) | AC50 [13]: 6.6 µM (active) | AC50 [4]: 4.73 µM (active) | AC50 [7]: 3.85 µM (active) | AC50 [22]: 41.7 µM (active)

Fc1ccc2[nH]c3c(N4CCc5ccccc5C4)ncnc3c2c1
IC50 [1]: 5.24 µM (active) | IC50 (HEK293 [23]): 12.4 µM (active) | CC50 [24]: > 40 µM (active) | AC50 [25]: 13.8 µM (active) | AC50 [13]: 3.91 µM (active) | AC50 [4]: 0.466 µM (active) | EC50 (HEK293 [26]): 3.14 µM (active) | IC50 (HEK293 [27]): 1.27 µM (active) | AC50 [7]: 24.1 µM (active) | IC50 (HEK293 [28]): 1.51 µM (active)

Cc1ccc(-c2nc(NCCCN(C)C)c3ccccc3n2)cc1
AC50 [18]: 10.6 µM (active) | AC50 [12]: 7.08 µM (active)

CO[C@@H]1CN(C)C(=O)c2cc(NC(=O)Nc3ccc(Cl)c(Cl)c3)ccc2OC[C@H](C)NC[C@@H]1C
AC50 [29]: > 52 µM (inactive)

COc1ccccc1C#Cc1ccc2c(c1)O[C@@H](CN(C)Cc1ccncc1)[C@H](C)CN([C@@H](C)CO)S2(=O)=O
AC50 (Paired box protein Pax-8): 2.84 µM (active) | AC50 [30]: 33 µM (active) | AC50 [22]: 33.2 µM (active)

COc1ccc(-c2nc3ccc(Br)cn3c2Cc2cccc(Cl)c2)cc1OC
IC50 (Major prion protein): 5.35 µM (active) | IC50 (cells [10]): > 138 µM (inactive)

COC1=C(N)C(=O)c2nc(C)ccc2C1=O
CC50 [24]: 20.8 µM (active) | IC50 [31]: 59.6 µM (inactive) | AC50 [20]: 0.61 µM (active) | IC50 [32]: 4.94 µM (active)
